In patent US11278629B2, “Methods for improving anti-CD37 immunoconjugate therapy” (Debiopharm International, S.A., priority 2016, dated 2022):
pIC50: −log10 of the molar value.

Columns and labels:
[1] = test system: lymphoma cell lines; assay: Apoptosis induction, caspase 3/7 activation (Promega ApoTox-Glo Triplex Assay); type: cell-based; conditions: 33/54 cell lines; apoptosis = at least 1.5-fold increase in caspase 3/7 signal vs controls
From the text: (§1) Fifty-four lymphoma cell lines (ALCL, anaplastic large cell lines (n=5); CLL, chronic lymphocytic leukemia (n=2); ABC-DLBCL, activated B cell like diffuse large B cell (n=7); GCB-DLBCL, germinal center B cell like diffuse large B cell (n=20); MCL, mantle cell lymphoma (n=10); MZL, marginal zone lymphoma (n=6); PMBCL, Primary Mediastinal Large B-Cell Lymphoma (n=1); SMZL, splenic marginal zone lymphoma (n=3)) were exposed to increasing doses of IMGN529 or to the unconjugated cytotoxic payload DM1 for 72 hours. Cell proliferation was measured using the MTT assay. Apoptosis induction was defined by at least a 1.5-fold increase in caspase 3/7 signal activation with respect to controls using the Promega ApoTox-Glo Triplex Assay. CD37 surface expression was assessed by cytofluorimetry. Gene expression profiling (GEP) was done with the Illumina HumanHT-12 Expression BeadChips on untreated cell lines followed by GSEA (NES>|2|, P<0.05, FDR<0.25) and limma t-test (FC>|1.2|; P<0.05; top 200 up and top 200 down).

[2] = test system: lymphoma cell lines; assay: Cell proliferation, MTT assay, fifty-four lymphoma cell lines; type: cell-based; conditions: 72 hours exposure, read-out: median IC50
From the text: as §1

Compound | lymphoma cell lines in which apoptosis was induced [1] [%] | pIC50 [2]
IMGN529: immunoconjugate containing the huCD37-3 antibody, the SMCC linker, and the DM1 maytansinoid | 61 | 
COc1cc2cc(c1Cl)N(C)C(=O)C[C@H](OC(=O)[C@H](C)N(C)C(=O)CCS)[C@]1(C)O[C@H]1[C@H](C)C1C[C@@](O)(NC(=O)O1)[C@H](OC)/C=C/C=C(\C)C2 [DM1, N^2′-deacetyl-N^2′-(3-mercapto-1-oxopropyl)-maytansine] |  | 10.52
